In EP2712863B1, “Novel inhibitors of bacterial biofilms and related methods” (Sequoia Sciences, Inc., priority 2012, dated 2014):
Values after ≈ are worked out from the molar mass of the structure shown. Read-outs that look alike come from different tables or passages of the source.

How the values were obtained:
E. coli = test: Biofilm growth assay (spreading biofilm on semi-solid agar); assay type: cell-based; details: Escherichia coli
How it was run: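 Spreading (swarming) biofilm on semi-solid agar: E. coli on LB with 0.6% agar and 0.5% glucose; P. aeruginosa on M8 agar with 0.2% glucose, 100 µM CaCl2, 1 mM MgSO4, 0.5% Casamino acids. Compound in medium; 5 µL overnight culture spotted centrally, 37°C overnight. Value: concentration (µg/ml) giving ≥85% reduction in spread area versus negative control.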

P. aeruginosa = test: as above; assay type: cell-based; details: Pseudomonas aeruginosa
[1] = Table 3, concentration that reduces the area of the spreading biofilm by >= 85%, read-out: E. coli
[2] = Table 3, concentration that reduces the area of the spreading biofilm by >= 85%, read-out: P. aeruginosa
[3] = Table 2, concentration that reduces the area of the spreading biofilm by >= 85%, read-out: E. coli
[4] = Table 2, concentration that reduces the area of the spreading biofilm by >= 85%, read-out: P. aeruginosa
[5] = Table 4, concentration that reduces the area of the spreading biofilm by >= 85%, read-out: E. coli
[6] = Table 4, concentration that reduces the area of the spreading biofilm by >= 85%, read-out: P. aeruginosa
[7] = Table 1, concentration that reduces the area of the spreading biofilm vs negative controls by >= 85%, > means not effective at this concentration, read-out: E. coli
[8] = Table 1, concentration that reduces the area of the spreading biofilm vs negative controls by >= 85%, > means not effective at this concentration, read-out: P. aeruginosa

## CC1(C)CC[C@]2(C(=O)O)CC[C@]3(C)C(=C(c4ccc(N)nc4)CC4[C@@]5(C)Cc6c(n[nH]c6N)C(C)(C)[C@@H]5CC[C@]43C)[C@@H]2C1 (stereo partly drawn) [Compound 41, (4aS,6aS,6bR,8aR,13aR,15bS)-12-Amino-15-(6-aminopyridin-3-yl)-2,2,6a,6b,9,9,13a-heptamethyl-2,3,4,4a,5,6,6a,6b,7,8,8a,9,11,13,13a,13b,14,15b-octadecahydro-1H-chryseno[1,2-f]indazole-4a-carboxylic acid]
E. coli; [1]
  IC85: 2 µg/mL (≈ 3.41 µM)
P. aeruginosa; [2]
  IC85: 1 µg/mL (≈ 1.71 µM)

## CC1(C)CC[C@]2(C(=O)O)CC[C@]3(C)C(=C(c4ccoc4CN4CCCC4)CC4[C@@]5(C)Cc6c(n[nH]c6N)C(C)(C)C5CC[C@]43C)C2C1 (stereo partly drawn) [Compound 37, (4aS,6aS,6bR,13aR)-12-Amino-2,2,6a,6b,9,9,13a-heptamethyl-15-(2-(pyrrolidin-1-ylmethyl)furan-3-yl)-2,3,4,4a,5,6,6a,6b,7,8,8a,9,11,13,13a,13b,14,15b-octadecahydro-1H-chryseno[1,2-f]indazole-4a-carboxylic acid]
E. coli; [1]
  IC85: 1 µg/mL (≈ 1.56 µM)
P. aeruginosa; [2]
  IC85: > 1 µg/mL

## CC1(C)CC[C@]2(C(=O)O)CC[C@]3(C)C(=C(c4ccc5c(c4)CCN5)CC4[C@@]5(C)Cc6c(n[nH]c6N)C(C)(C)C5CC[C@]43C)C2C1 (stereo partly drawn) [Compound 11, (4aS,6aS,6bR,13aR)-12-Amino-15-(indolin-5-yl)-2,2,6a,6b,9,9,13a-heptamethyl-2,3,4,4a,5,6,6a,6b,7,8,8a,9,11,13,13a,13b,14,15b-octadecahydro-1H-chryseno[1,2-f]indazole-4a-carboxylic acid]
E. coli; [3]
  IC85: 0.5 µg/mL (≈ 0.818 µM)
P. aeruginosa; [4]
  IC85: 0.5 µg/mL (≈ 0.818 µM)

## CC1(C)CC[C@]2(C(=O)O)CC[C@]3(C)C(=C(c4cccc5cnccc45)CC4[C@@]5(C)Cc6c(n[nH]c6N)C(C)(C)C5CC[C@]43C)C2C1 (stereo partly drawn) [Compound 46, (4aS,6aS,6bR,13aR)-12-Amino-15-(isoquinolin-5-yl)-2,2,6a,6b,9,9,13a-heptamethyl-2,3,4,4a,5,6,6a,6b,7,8,8a,9,11,13,13a,13b,14,15b-octadecahydro-1H-chryseno[1,2-f]indazole-4a-carboxylic acid]
E. coli; [1]
  IC85: 1 µg/mL (≈ 1.61 µM)
P. aeruginosa; [2]
  IC85: 0.5 µg/mL (≈ 0.805 µM)

## CNCCc1c([C@]23CCC(C)(C)CC2C2=CCC4[C@@]5(C)Cc6c(n[nH]c6N)C(C)(C)C5CC[C@@]4(C)[C@]2(C)CC3)n[nH]c1O (stereo partly drawn) [Compound 86, 3-((4aS,6aS,6bR,13aR)-12-Amino-2,2,6a,6b,9,9,13a-heptamethyl-2,3,4,4a,5,6,6a,6b,7,8,8a,9,11,13,13a,13b,14,15b-octadecahydro-1H-chryseno[1,2-f]indazol-4a-yl)-4-(2-(methylamino)ethyl)-1H-pyrazol-5-ol]
E. coli; [5]
  IC85: 2 µg/mL (≈ 3.4 µM)
P. aeruginosa; [6]
  IC85: 0.5 µg/mL (≈ 0.849 µM)

## CC1(C)CC[C@]2(C(=O)O)CC[C@]3(C)C(=C(Br)CC4[C@@]5(C)Cc6c(n[nH]c6N)C(C)(C)[C@@H]5CC[C@]43C)[C@@H]2C1 (stereo partly drawn) [Compound 25, (4aS,6aS,6bR,8aR,13aR,15bR)-12-Amino-15-bromo-2,2,6a,6b,9,9,13a-heptamethyl-2,3,4,4a,5,6,6a,6b,7,8,8a,9,11,13,13a,13b,14,15b-octadecahydro-1H-chryseno[1,2-f]indazole-4a-carboxylic acid]
E. coli; [1]
  IC85: > 2 µg/mL
P. aeruginosa; [2]
  IC85: 0.5 µg/mL (≈ 0.873 µM)

## CC1(C)CC[C@]2(C(=O)O)CC[C@]3(C)C(=C(c4ccc(N5CCC(N)C5)nc4)CC4[C@@]5(C)Cc6c(n[nH]c6N)C(C)(C)C5CC[C@]43C)C2C1 (stereo partly drawn) [Compound 58, (4aS,6aS,6bR,13aR)-12-Amino-15-(6-(3-aminopyrrolidin-1-yl)pyridin-3-yl)-2,2,6a,6b,9,9,13a-heptamethyl-2,3,4,4a,5,6,6a,6b,7,8,8a,9,11,13,13a,13b,14,15b-octadecahydro-1H-chryseno[1,2-f]indazole-4a-carboxylic acid]
E. coli; [1]
  IC85: 2 µg/mL (≈ 3.05 µM)
P. aeruginosa; [2]
  IC85: 1 µg/mL (≈ 1.53 µM)

## C[C@H]1[C@H](C)CC[C@]2(C(=O)O)CC[C@]3(C)C(=CC[C@@H]4[C@@]5(C)CC[C@H](O)C(C)(C)[C@@H]5CC[C@]43C)[C@H]12 [Ursolic acid, reference compound]
E. coli; [7]
  IC85: 8 µg/mL (≈ 17.5 µM)
P. aeruginosa; [8]
  IC85: 8 µg/mL (≈ 17.5 µM)

## CC1(C)CC[C@]2(C(=O)Nc3nnc(S)s3)CC[C@]3(C)C(=CCC4[C@@]5(C)Cc6c(n[nH]c6N)C(C)(C)C5CC[C@]43C)C2C1 (stereo partly drawn) [Compound 74, (4aS,6aS,6bR,13aR)-12-Amino-N-(5-mercapto-1,3,4-thiadiazol-2-yl)-2,2,6a,6b,9,9,13a-heptamethyl-2,3,4,4a,5,6,6a,6b,7,8,8a,9,11,13,13a,13b,14,15b-octadecahydro-1H-chryseno[1,2-f]indazole-4a-carboxamide]
E. coli; [5]
  IC85: > 2 µg/mL
P. aeruginosa; [6]
  IC85: 1 µg/mL (≈ 1.64 µM)

## CC1(C)CC[C@]2(C(=O)NO)CC[C@]3(C)C(=CCC4[C@@]5(C)Cc6c(n[nH]c6N)C(C)(C)C5CC[C@]43C)C2C1 (stereo partly drawn) [Compound 65, (4aS,6aS,6bR,13aR)-12-Amino-N-hydroxy-2,2,6a,6b,9,9,13a-heptamethyl-2,3,4,4a,5,6,6a,6b,7,8,8a,9,11,13,13a,13b,14,15b-octadecahydro-1H-chryseno[1,2-f]indazole-4a-carboxamide]
E. coli; [5]
  IC85: 0.25 µg/mL (≈ 0.491 µM)
P. aeruginosa; [6]
  IC85: 0.25 µg/mL (≈ 0.491 µM)

## CC1=C2[C@@H]3CC(C)(C)CC[C@]3(C(=O)O)CC[C@@]2(C)[C@]2(C)CC[C@H]3C(C)(C)c4n[nH]c(N)c4C[C@]3(C)C2C1 (stereo partly drawn) [Compound 4, (4aS,6aS,6bR,8aR,13aR,15bS)-12-Amino-2,2,6a,6b,9,9,13a,15-octamethyl-2,3,4,4a,5,6,6a,6b,7,8,8a,9,11,13,13a,13b,14,15b-octadecahydro-1H-chryseno[1,2-f]indazole-4a-carboxylic acid]
E. coli; [3]
  IC85: 1 µg/mL (≈ 1.97 µM)
P. aeruginosa; [4]
  IC85: 0.25 µg/mL (≈ 0.492 µM)

## CC1(C)CC[C@]2(C(=O)O)CC[C@]3(C)C(=CCC4[C@@]5(C)Cc6cc[nH]c6C(C)(C)C5CC[C@]43C)C2C1 (some centres unmarked) [C]
E. coli; [7]
  IC85: 0.5 µg/mL (≈ 1.05 µM)
P. aeruginosa; [8]
  IC85: 0.5 µg/mL (≈ 1.05 µM)

## CC1(C)CC[C@]2(C(=O)O)CC[C@]3(C)C(=C(c4ccc5[nH]ccc5c4)CC4[C@@]5(C)Cc6c(n[nH]c6N)C(C)(C)C5CC[C@]43C)C2C1 (stereo partly drawn) [Compound 49, (4aS,6aS,6bR,13aR)-12-Amino-15-(1H-indol-5-yl)-2,2,6a,6b,9,9,13a-heptamethyl-2,3,4,4a,5,6,6a,6b,7,8,8a,9,11,13,13a,13b,14,15b-octadecahydro-1H-chryseno[1,2-f]indazole-4a-carboxylic acid]
E. coli; [1]
  IC85: > 1 µg/mL
P. aeruginosa; [2]
  IC85: 0.5 µg/mL (≈ 0.821 µM)

## CC1(C)CC[C@]2(c3n[nH]c(O)c3CCN)CC[C@]3(C)C(=C(c4ccoc4CN4CCOCC4)CC4[C@@]5(C)Cc6c(n[nH]c6N)C(C)(C)[C@@H]5CC[C@]43C)[C@@H]2C1 (stereo partly drawn) [Compound 92, 3-((4aS,6aS,6bR,8aR,13aR,15bS)-12-Amino-2,2,6a,6b,9,9,13a-heptamethyl-15-(2-(morpholinomethyl)furan-3-yl)-2,3,4,4a,5,6,6a,6b,7,8,8a,9,11,13,13a,13b,14,15b-octadecahydro-1H-chryseno[1,2-f]indazol-4a-yl)-4-(2-aminoethyl)-1H-pyrazol-5-ol]
E. coli; Table 5, concentration that reduces the area of the spreading biofilm by >= 85%, read-out: E. coli
  IC85: 2 µg/mL (≈ 2.7 µM)
P. aeruginosa; Table 5, concentration that reduces the area of the spreading biofilm by >= 85%, read-out: P. aeruginosa
  IC85: 0.5 µg/mL (≈ 0.676 µM)

## CC1(C)CC[C@]2(c3n[nH]c(O)c3N3CCNCC3)CC[C@]3(C)C(=CCC4[C@@]5(C)Cc6c(n[nH]c6N)C(C)(C)C5CC[C@]43C)C2C1 (stereo partly drawn) [Compound 90, 3-((4aS,6aS,6bR,13aR)-12-Amino-2,2,6a,6b,9,9,13a-heptamethyl-2,3,4,4a,5,6,6a,6b,7,8,8a,9,11,13,13a,13b,14,15b-octadecahydro-1H-chryseno[1,2-f]indazol-4a-yl)-4-(piperazin-1-yl)-1H-pyrazol-5-ol]
E. coli; read-out: E. coli (µg/ml)
  IC85: 1 µg/mL (≈ 1.62 µM)
P. aeruginosa; read-out: P. aeruginosa (µg/ml)
  IC85: 0.5 µg/mL (≈ 0.812 µM)

## CC1(C)CC[C@]2(C(=O)O)CC[C@]3(C)C(=C(c4coc(CN5CCCC5)c4)CC4[C@@]5(C)Cc6c(n[nH]c6N)C(C)(C)C5CC[C@]43C)C2C1 (stereo partly drawn) [Compound 38, (4aS,6aS,6bR,13aR)-12-Amino-2,2,6a,6b,9,9,13a-heptamethyl-15-(5-(pyrrolidin-1-ylmethyl)furan-3-yl)-2,3,4,4a,5,6,6a,6b,7,8,8a,9,11,13,13a,13b,14,15b-octadecahydro-1H-chryseno[1,2-f]indazole-4a-carboxylic acid]
E. coli; [1]
  IC85: 2 µg/mL (≈ 3.11 µM)
P. aeruginosa; [2]
  IC85: 1 µg/mL (≈ 1.56 µM)

## CN(C)c1ccc(C2=C3[C@@H]4CC(C)(C)CC[C@]4(C(=O)O)CC[C@@]3(C)[C@]3(C)CC[C@H]4C(C)(C)c5n[nH]c(N)c5C[C@]4(C)C3C2)cn1 (stereo partly drawn) [Compound 44, (4aS,6aS,6bR,8aR,13aR,15bS)-12-Amino-15-(6-(dimethylamino)pyridin-3-yl)-2,2,6a,6b,9,9,13a-heptamethyl-2,3,4,4a,5,6,6a,6b,7,8,8a,9,11,13,13a,13b,14,15b-octadecahydro-1H-chryseno[1,2-f]indazole-4a-carboxylic acid]
E. coli; [1]
  IC85: 2 µg/mL (≈ 3.26 µM)
P. aeruginosa; [2]
  IC85: 0.5 µg/mL (≈ 0.814 µM)

## CC1(C)CC[C@]2(C(=O)O)CC[C@]3(C)[C@H](C(=O)C=C4[C@@]5(C)C=C(C#N)C(=O)C(C)(C)[C@@H]5CC[C@]43C)[C@@H]2C1 [L]
E. coli; [7]
  IC85: > 16 µg/mL
P. aeruginosa; [8]
  IC85: > 16 µg/mL

## CC1(C)CC[C@]2(CN)CC[C@]3(C)C(=CCC4[C@@]5(C)Cc6c(n[nH]c6N)C(C)(C)C5CC[C@]43C)C2C1 (stereo partly drawn) [Compound 63, (4aS,6aS,6bR,13aR)-4a-(Aminomethyl)-2,2,6a,6b,9,9,13a-heptamethyl-2,3,4,4a,5,6,6a,6b,7,8,8a,9,11,13,13a,13b,14,15b-octadecahydro-1H-chryseno[1,2-f]indazol-12-amine]
E. coli; [5]
  IC85: 1 µg/mL (≈ 2.09 µM)
P. aeruginosa; [6]
  IC85: 4 µg/mL (≈ 8.35 µM)
